The results in this text go back to PubChem BioAssay AID977621 (Broad Institute, 2014).

Assay [1] concerns E. coli wild-type GFP strain growth, fluorescence, 24 h. Kind of assay: wild-type E. coli growth inhibition versus H69 humanized strain – H69 mutant RFP, wild-type GFP, cherry-pick, dose response (AID 977621).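 Note: wild-type GFP and H69 mutant RFP strains grown together 50/50 in each well.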
For assay [2], the system named is E. coli H69 humanized mutant ribosome RFP strain growth, fluorescence, 24 h. Described as above. To be noted: test 2.
The mark [3] stands for this setting: E. coli mixed culture, 24 h, measured here: total growth OD600, test 2.
[4] abbreviates: measured here: total growth OD600, test 2.

Results filed as inconclusive are left out. Active and inactive are the calls of the source.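 Rule for the calls: active = Wild-type ribosome reporter drop at least double the humanized mutant ribosome reporter drop, growth loss under a set limit; inconclusive = no clear call, values can overlap the other calls; inactive = the rest.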 A value given as a limit tells only on which side of the number the result lay.

Consider `CC(Nc1ncnc2ccccc12)c1ccccc1` (centres undefined), for which the AC50 in assay [1] was > 100 µM (inactive); in assay [2], > 100 µM.
On to `CCOC(=O)c1ccoc1CN1CCN(S(=O)(=O)c2ccc(C)c(C)c2)CC1`, for which the AC50 in assay [1] is > 100 µM (inactive); in assay [2], > 100 µM.
Consider `O=C(NC1=NCCS1)c1sc2ccccc2c1Cl`, for which the AC50 in assay [1] was > 100 µM (inactive); in assay [1] (setting [3]), 43.6 µM; in assay [2] it was > 100 µM.
Regarding `CCc1ccn2cc(-c3ccc4c(c3)OCO4)nc2c1`, the AC50 in assay [1] (setting [3]) and in assay [2] was > 100 µM throughout.
Turning to `C(=C(c1ccccc1)c1ccccc1)c1ccccn1`, the AC50 in assay [1] (setting [3]) and in assay [2] was > 100 µM in each case.
As to `O=C(CSCc1c(Cl)cccc1Cl)Nc1cccnc1`, the AC50 in assay [1] is > 100 µM (inactive); in assay [1] (setting [3]), > 100 µM; in assay [2], 5.01 µM.
`CCn1c2ccccc2c2cc(NC(=O)c3ccco3)ccc21`: the AC50 was > 100 µM (inactive) in assay [1], 40 µM in assay [1] (setting [3]) and > 100 µM in assay [2].
In the case of `O=C(O)C1CCCCC1C(=O)Nc1ccc(OCc2ccccc2)cc1` (centres undefined), the figures for the AC50 in assay [1] and in assay [2] were > 100 µM (inactive) and > 100 µM, respectively.
With `Cc1cccc(C)c1NC(=O)C1(C)CSCC(=O)N1CCOc1ccccc1` (centres undefined), the AC50 in assay [1] (setting [3]) and in assay [2] was > 100 µM throughout.
For `CN1c2ccccc2-c2nc3ccccc3n2C1c1ccncc1` (centres undefined), the values for the AC50 in assay [1], in assay [1] (setting [3]) and in assay [2] were > 100 µM (inactive), > 100 µM and > 100 µM, respectively.
`C=C(C)Cn1c(=O)c2c(nc3n2CCCN3Cc2ccccc2)n(C)c1=O`: the AC50 in assay [1] is > 100 µM (inactive); in assay [2], > 100 µM.
As to `CN(CCOc1ccc(CC2SC(=O)NC2=O)cc1)c1ccccn1` (centres undefined), the AC50 was > 100 µM (inactive) in assay [1], 40.7 µM in assay [1] (setting [3]) and > 100 µM in assay [2].
For the compound `O=C(CSc1nc2scc(-c3ccccc3)c2c(=O)[nH]1)N1CCCCC1`, the results for the AC50 in assay [1], in assay [1] (setting [3]) and in assay [2] were > 100 µM (inactive), 44.2 µM and > 100 µM, respectively.
Regarding `O=C(O)CCSc1nc2ccccc2n1-c1ccccc1`, the figures for the AC50 in assay [1], in assay [1] (setting [3]) and in assay [2] were > 100 µM (inactive), 26.9 µM and 7.77 µM, respectively.
On to `COc1ccc(-c2csc3ncn(-c4ccccc4OC)c(=O)c23)cc1OC`, for which the AC50 in assay [1] was > 100 µM (inactive); in assay [2] it was > 100 µM.
With `COc1ccc(-c2ccccc2)cc1NC(=O)c1ccncc1`, the AC50 in assay [1] (setting [3]) was > 100 µM; in assay [2], 4.41 µM.
Regarding `CCC1(C(=O)OC)CCc2c(cc(OC)c3ccccc23)C1=O` (centres undefined), the AC50 in assay [1] (setting [3]) was 42.2 µM; in assay [2], > 100 µM.
As to `COc1ccccc1NC(=O)CSc1nccn1Cc1ccc(F)cc1`, the AC50 in assay [1] (setting [3]) is > 100 µM; in assay [2], 30.8 µM.
`O=C(NCc1ccccc1)c1ccc(-c2ccccc2F)o1`: the AC50 in assay [1] (setting [3]) is 36.1 µM; in assay [2] it was > 100 µM.
Take `Cc1ccc(S(=O)(=O)Nc2ccccc2CNc2ccccn2)cc1`: the AC50 is > 100 µM (inactive) in assay [1], 48.9 µM in assay [1] (setting [3]) and 50.6 µM in assay [2].
For `CN(C)S(=O)(=O)c1cccc(C(=O)Nc2ccc(C(=O)Nc3cccc(S(N)(=O)=O)c3)cc2)c1`, the values for the AC50 in assay [1] and in assay [2] were > 100 µM (inactive) and > 100 µM, respectively.
Turning to `CCn1cc(Br)c(C(=O)Nc2ccc(C(=O)OC(C)C)cc2)n1`, the results for the AC50 in assay [1] and in assay [2] were > 100 µM (inactive) and 24.1 µM, respectively.
Take `O=C(O)CCC(=O)NCc1c(Cl)cccc1Sc1ccc(Cl)cc1`: the AC50 was > 100 µM (inactive) in assay [1] and > 100 µM in assay [2].
For `COC(=O)c1ccsc1NC(=O)c1cccc(OC)c1`, the AC50 in assay [1] (setting [3]) and in assay [2] was > 100 µM each time.
As for `CCOc1ccccc1N1CCN(C(=O)CCCc2nc3ccccc3s2)CC1`, the AC50 in assay [1] is > 100 µM (inactive); in assay [1] (setting [3]), 37.2 µM; in assay [2], 43.7 µM.
Turning to `O=C(Cn1c(C(=O)NCc2ccco2)cc2sccc21)c1ccccc1`, the AC50 in assay [1] (setting [3]) came out at 50 µM; in assay [2] it was 47.2 µM.
Take `CCOC(=O)CN1C(=O)C(CC)Oc2ccc(Cl)cc21` (centres undefined): the AC50 in assay [1] (setting [3]) is > 100 µM; in assay [2], 5.94 µM.
Consider `Cc1nnn(C23CC4CC(CC(CC(=O)Nc5ccc(C)c(C)c5)(C4)C2)C3)n1`, for which the results for the AC50 in assay [1] and in assay [2] were > 100 µM (inactive) and > 100 µM, respectively.
For `COc1ccccc1CNC(=O)CN1C(=O)NC(c2ccccc2)(c2ccccc2)C1=O`, the AC50 was > 100 µM in assay [1] (setting [3]) and 50.3 µM in assay [2].
In the case of `O=C(Cc1c(Cl)cccc1Cl)Nc1cccc(S(=O)(=O)N2CCOCC2)c1`, the results for the AC50 in assay [1], in assay [1] (setting [3]) and in assay [2] were > 100 µM (inactive), 47.3 µM and > 100 µM, respectively.
For `O=S(=O)(NCC1CCCO1)c1ccc(-c2ccc(Cl)cc2)cc1` (centres undefined), the AC50 in assay [1] was > 100 µM (inactive); in assay [1] (setting [3]), 44.5 µM; in assay [2], > 100 µM.
Regarding `COc1ccccc1-n1c(Cc2ccccc2)nc2ccccc2c1=O`, the AC50 was > 100 µM (inactive) in assay [1], 33 µM in assay [1] (setting [4]) and 47.8 µM in assay [2].
Turning to `Cc1sc(NC(=O)CN2CCOCC2)nc1-c1ccc2c(c1)CCN2S(=O)(=O)c1ccccc1`, the AC50 is > 100 µM in assay [1] (setting [3]) and 2.87 µM in assay [2].
Regarding `O=C(NCc1ccccc1Cl)[C@H]1CCCN1C(=O)[C@H]1CCCN1C(=O)c1cccc2ccccc12`, the AC50 in assay [1] was > 100 µM (inactive); in assay [1] (setting [3]) it was 48 µM; in assay [2], > 100 µM.
As for `CCOc1ccc2oc(C(=O)NC3CCN(Cc4ccccc4)CC3)c(C)c2c1`, the AC50 was > 100 µM in assay [1] (setting [3]) and 1.3 µM in assay [2].
Turning to `COc1ccc(NC(=O)C2CC3C=CC2C3)c([N+](=O)[O-])c1` (centres undefined), the AC50 in assay [1] was > 100 µM (inactive); in assay [2] it was > 100 µM.
For `O=C(c1ccc(Cl)cc1)C1CCCN(Cc2cccc3cnccc23)C1` (centres undefined), the AC50 in assay [1] was > 100 µM (inactive); in assay [2], > 100 µM.
Take `Cc1cc(NC(=O)CS(=O)(=O)c2cn(Cc3cccc(Br)c3)c3ccccc23)no1`: the AC50 in assay [1] (setting [3]) is 46 µM; in assay [2], > 100 µM.
For `CC1CCCN(c2nc(N(C)c3ccccc3)nc(N)c2[N+](=O)[O-])C1` (centres undefined), the AC50 in assay [1] was > 100 µM (inactive); in assay [2] it was 50.7 µM.
Regarding `COC(=O)c1c(NC(=O)c2ccccc2C(=O)O)sc2c1CCC2`, the figures for the AC50 in assay [1] and in assay [2] were > 100 µM (inactive) and 45.4 µM, respectively.
For `O=S(=O)(NC1CC1)c1ccc(S(=O)(=O)N2CCc3ccccc32)cc1`, the AC50 in assay [1] (setting [3]) is > 100 µM; in assay [2], 8.03 µM.
As for `C[C@]12CCC3C(CC[C@H]4C[C@@H](O)CC[C@]34C)[C@H]1CC[C@H]2O` (some centres undefined), the AC50 was 43.3 µM in assay [1] (setting [4]) and > 100 µM in assay [2].
Turning to `NC(=O)c1sc2nnc(-c3ccccc3)c(-c3ccccc3)c2c1N`, the results for the AC50 in assay [1] and in assay [2] were > 100 µM (inactive) and > 100 µM, respectively.
Regarding `Cc1ccc(N(CC(O)Cn2nc(C)cc2C)S(=O)(=O)c2ccc3ccccc3c2)cc1` (centres undefined), the values for the AC50 in assay [1], in assay [1] (setting [3]) and in assay [2] were > 100 µM (inactive), 31.5 µM and > 100 µM, respectively.
`O=c1c2cc(Br)ccc2[nH]c(=S)n1Cc1ccccc1`: the results for the AC50 in assay [1] (setting [3]) and in assay [2] were 43.2 µM and > 100 µM, respectively.
As to `O=S1(=O)N[C@H](Cc2ccccc2)COc2cccc(N3CCC[C@H]3CO)c21`, the AC50 in assay [1] (setting [3]) and in assay [2] was > 100 µM in each case.
Take `CN(c1ccccc1)S(=O)(=O)c1cccc(NC(=O)CCN2C(=O)C3CCCCC3C2=O)c1` (centres undefined): the AC50 in assay [1] was > 100 µM (inactive); in assay [2] it was > 100 µM.
As for `COc1ccc(-c2nc(NC(C)=O)sc2-c2ccccc2)cc1`, the AC50 was 44.1 µM in assay [1] (setting [3]) and 49.1 µM in assay [2].
The like results for `CC(C)C[C@H]1COc2cc(Br)ccc2S(=O)(=O)N1` were, in that order, > 100 µM and 5.91 µM.
Take `COc1ccc(C)cc1NC(=O)c1nn(C)cc1Br`: the AC50 is > 100 µM (inactive) in assay [1], 33.9 µM in assay [1] (setting [3]) and > 100 µM in assay [2].
As to `O=C(Nc1ccc(Br)cc1)c1cccnc1N1CCCCC1`, the AC50 in assay [1] (setting [3]) is 45.7 µM; in assay [2], > 100 µM.
`CCSc1nc2ccccc2c(=O)n1CCc1ccc(OC)c(OC)c1`: the AC50 in assay [1] is > 100 µM (inactive); in assay [1] (setting [3]) it was 44.4 µM; in assay [2], 47.2 µM.
With `Cn1c(=O)c2nc(-c3ccccc3)c(-c3ccccc3)nc2n(C)c1=O`, the AC50 in assay [1] is > 100 µM (inactive); in assay [1] (setting [3]), 47.9 µM; in assay [2], 35.6 µM.
With `Cc1ccc(NC(=O)CN(C)C(=O)Cc2coc3cc(C)c(C)cc23)cc1`, the values for the AC50 in assay [1], in assay [1] (setting [3]) and in assay [2] were > 100 µM (inactive), 42.4 µM and 44 µM, respectively.
`CN(c1ccccc1)c1ccc([N+](=O)[O-])c2nonc12`: the AC50 in assay [1] was > 100 µM (inactive); in assay [2], 49.4 µM.
As for `Cc1noc(C)c1COc1cccc(C(=O)N2CCc3ccccc32)c1`, the AC50 in assay [1] (setting [3]) and in assay [2] was > 100 µM in each case.
As for `C=CCn1c(SCC(=O)Nc2ccc3c(c2)OCCO3)nnc1-c1ccco1`, the figures for the AC50 in assay [1] and in assay [2] were > 100 µM (inactive) and < 0.6 µM, respectively.
For the compound `CSc1c(-c2ccccn2)c(N)nn1C(=O)C1CC1`, the AC50 in assay [1] was > 100 µM (inactive); in assay [2] it was > 100 µM.
Turning to `COC(=O)C[C@H]1C[C@@H]2c3cc(NC(=O)Nc4ccc(C(F)(F)F)cc4)ccc3O[C@@H]2[C@H](CO)O1`, the AC50 in assay [1] is > 100 µM (inactive); in assay [1] (setting [3]) it was > 100 µM; in assay [2], > 100 µM.
`Cc1ccccc1-n1c([C@@H]2C[C@H]2c2ccccc2)n[nH]c1=S`: the AC50 is 1.6 µM in assay [1] (setting [3]) and 5.56 µM in assay [2].
For `CCCc1c(C(=O)Nc2ccc(OC)cc2)cnn1-c1ccccc1`, the AC50 in assay [1] was > 100 µM (inactive); in assay [1] (setting [3]), 38.1 µM; in assay [2], > 100 µM.
With `CCN(CC)CCn1c(SCC(=O)Nc2cccc(OC)c2)nc2c(sc3ccccc32)c1=O`, the AC50 in assay [1] is > 100 µM (inactive); in assay [2], > 100 µM.

A word on the AC50: it is the concentration giving half of the maximal activity seen.
